{"source": "paper PMC11573166", "about": "“Sodium-dependent glucose co-transport proteins (SGLTs) are not involved in human glucose taste detection” (PLOS ONE, 2024)", "biological_target": "T1, human SGLT1 (hSGLT1) (Homo sapiens, UniProt P13866)", "T1 construct": "gene SLC5A1; Full length human SGLT1 (NP_000334)", "T1 sequence (P13866 1-664)": "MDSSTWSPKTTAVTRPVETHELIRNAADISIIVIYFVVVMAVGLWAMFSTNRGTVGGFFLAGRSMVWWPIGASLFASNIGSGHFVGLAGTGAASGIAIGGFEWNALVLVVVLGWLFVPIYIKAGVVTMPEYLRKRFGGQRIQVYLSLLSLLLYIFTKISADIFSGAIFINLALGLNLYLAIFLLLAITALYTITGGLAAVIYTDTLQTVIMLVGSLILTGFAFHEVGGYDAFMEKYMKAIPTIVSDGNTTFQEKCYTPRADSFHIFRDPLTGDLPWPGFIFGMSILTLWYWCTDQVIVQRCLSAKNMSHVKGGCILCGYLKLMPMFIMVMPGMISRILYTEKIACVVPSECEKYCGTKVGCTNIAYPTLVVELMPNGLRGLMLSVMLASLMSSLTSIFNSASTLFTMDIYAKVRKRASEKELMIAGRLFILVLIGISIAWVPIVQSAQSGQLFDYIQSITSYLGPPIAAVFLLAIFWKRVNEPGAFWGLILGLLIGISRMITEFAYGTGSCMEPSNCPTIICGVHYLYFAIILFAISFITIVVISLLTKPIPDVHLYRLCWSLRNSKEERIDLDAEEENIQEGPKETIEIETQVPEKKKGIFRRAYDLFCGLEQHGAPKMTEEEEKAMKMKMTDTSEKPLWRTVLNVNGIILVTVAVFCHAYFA", "experiment": "FLIPR membrane potential assay in CHO cells transiently expressing hSGLT1; mock-transfected cells did not respond", "assay_type": "cell-based", "data": [{"compound": "OC[C@H]1OC(O)[C@H](O)[C@@H](O)[C@@H]1O", "note": "(stereo partly drawn) [D-glucose]", "values": [{"measurement": "EC50", "result": 452, "unit": "µM"}]}]}
